The source of these data is US20250302832A1, “PYRAZINE DERIVATIVES AND USES THEREOF” (FOGHORN THERAPEUTICS INC., priority 2022, published 2025).

Where only a bound is given, the exact number is not on record here.

One test deals with T1, HiBit-BRM fusion protein (Homo sapiens, UniProt P51531).
T1 construct: expressed in transfected cells
The experiment in a line: HiBiT-BRM cell-based degradation assay (Nano-Glo HiBiT lytic detection, 24 h). The conditions noted are these: HeLa cell line expressing HiBiT-BRM; for DC50: read-out: BRM HiBit Degradation IC50. An outline of the steps: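 Luminescence from LgBiT complementation quantified remaining HiBiT-BRM in stably expressing HeLa cells after 24 h compound exposure (top final dose 30 μM, 3-fold, 10 points, duplicate). Degradation expressed as percent relative to DMSO and a 2 μM reference degrader.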
A general note: HiBiT is a short tag that completes a luciferase, so light tracks the accessible tagged protein.

Test [1] addresses T2, HiBit-BRG1 fusion protein (Homo sapiens, UniProt P51532).
T2 construct: expressed in transfected cells
The experiment in a line: HiBiT-BRG1 cell-based degradation assay (Nano-Glo HiBiT lytic detection, 24 h). The settings on record: HeLa cell line expressing HiBit-BRG1 and LgBit, read-out: BRG1 HiBit Degradation Maximum (%). An outline of the steps:
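Luminescence from HiBiT/LgBiT complementation after lytic detection reagent was read following 24 h compound exposure of HeLa cells stably carrying HiBiT-BRG1 plus LgBiT (5000 cells/well). Signal scaled to % degradation using DMSO-treated cells as 0% and cells given 2 μM known BRM/BRG1 degrader as 100%.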

T2 sequence (P51532 whole entry, the tested form may be a part): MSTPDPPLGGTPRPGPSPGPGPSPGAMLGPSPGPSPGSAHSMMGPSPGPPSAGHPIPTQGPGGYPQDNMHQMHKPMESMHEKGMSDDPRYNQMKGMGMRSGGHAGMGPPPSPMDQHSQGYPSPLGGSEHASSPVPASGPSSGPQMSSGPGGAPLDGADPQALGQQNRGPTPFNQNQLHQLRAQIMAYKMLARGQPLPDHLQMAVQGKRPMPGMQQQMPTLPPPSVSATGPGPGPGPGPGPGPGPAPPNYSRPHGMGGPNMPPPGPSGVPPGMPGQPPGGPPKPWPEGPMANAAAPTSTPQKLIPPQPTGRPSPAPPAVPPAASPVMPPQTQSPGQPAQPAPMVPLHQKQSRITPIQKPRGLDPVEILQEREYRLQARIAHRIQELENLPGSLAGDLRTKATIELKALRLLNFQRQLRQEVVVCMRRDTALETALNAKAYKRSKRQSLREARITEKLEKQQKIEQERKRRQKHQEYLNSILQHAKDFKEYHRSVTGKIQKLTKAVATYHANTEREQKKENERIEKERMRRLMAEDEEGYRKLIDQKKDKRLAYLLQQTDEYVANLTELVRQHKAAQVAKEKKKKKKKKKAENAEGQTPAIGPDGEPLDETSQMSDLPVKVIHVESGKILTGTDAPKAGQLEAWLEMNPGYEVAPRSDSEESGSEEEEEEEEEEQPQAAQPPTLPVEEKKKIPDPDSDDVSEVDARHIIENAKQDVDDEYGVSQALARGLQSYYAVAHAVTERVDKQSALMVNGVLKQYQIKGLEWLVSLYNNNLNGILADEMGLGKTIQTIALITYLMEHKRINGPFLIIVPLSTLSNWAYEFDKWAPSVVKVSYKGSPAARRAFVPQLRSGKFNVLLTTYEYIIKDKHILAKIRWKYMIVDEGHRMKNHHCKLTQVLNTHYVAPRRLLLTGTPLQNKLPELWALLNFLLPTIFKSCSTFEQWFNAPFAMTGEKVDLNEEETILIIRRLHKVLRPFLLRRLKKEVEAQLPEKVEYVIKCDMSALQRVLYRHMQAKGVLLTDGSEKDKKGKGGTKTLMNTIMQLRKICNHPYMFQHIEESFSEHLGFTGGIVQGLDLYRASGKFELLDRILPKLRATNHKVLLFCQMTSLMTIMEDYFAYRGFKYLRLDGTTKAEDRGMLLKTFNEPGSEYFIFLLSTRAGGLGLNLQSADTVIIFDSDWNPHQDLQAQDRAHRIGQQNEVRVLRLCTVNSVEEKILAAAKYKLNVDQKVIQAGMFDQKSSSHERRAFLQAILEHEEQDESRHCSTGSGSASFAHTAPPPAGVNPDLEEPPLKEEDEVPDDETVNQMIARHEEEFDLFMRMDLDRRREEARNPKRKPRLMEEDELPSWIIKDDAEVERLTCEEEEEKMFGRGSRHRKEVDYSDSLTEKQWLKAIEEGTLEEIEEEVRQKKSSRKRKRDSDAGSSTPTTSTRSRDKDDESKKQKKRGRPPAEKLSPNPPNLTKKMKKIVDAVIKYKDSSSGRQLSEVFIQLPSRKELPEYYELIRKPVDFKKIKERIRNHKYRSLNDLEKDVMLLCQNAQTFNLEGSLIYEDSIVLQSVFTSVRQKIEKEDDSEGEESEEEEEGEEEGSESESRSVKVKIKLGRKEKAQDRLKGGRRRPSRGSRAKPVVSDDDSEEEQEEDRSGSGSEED
T1 sequence (P51531 whole entry, the tested form may be a part): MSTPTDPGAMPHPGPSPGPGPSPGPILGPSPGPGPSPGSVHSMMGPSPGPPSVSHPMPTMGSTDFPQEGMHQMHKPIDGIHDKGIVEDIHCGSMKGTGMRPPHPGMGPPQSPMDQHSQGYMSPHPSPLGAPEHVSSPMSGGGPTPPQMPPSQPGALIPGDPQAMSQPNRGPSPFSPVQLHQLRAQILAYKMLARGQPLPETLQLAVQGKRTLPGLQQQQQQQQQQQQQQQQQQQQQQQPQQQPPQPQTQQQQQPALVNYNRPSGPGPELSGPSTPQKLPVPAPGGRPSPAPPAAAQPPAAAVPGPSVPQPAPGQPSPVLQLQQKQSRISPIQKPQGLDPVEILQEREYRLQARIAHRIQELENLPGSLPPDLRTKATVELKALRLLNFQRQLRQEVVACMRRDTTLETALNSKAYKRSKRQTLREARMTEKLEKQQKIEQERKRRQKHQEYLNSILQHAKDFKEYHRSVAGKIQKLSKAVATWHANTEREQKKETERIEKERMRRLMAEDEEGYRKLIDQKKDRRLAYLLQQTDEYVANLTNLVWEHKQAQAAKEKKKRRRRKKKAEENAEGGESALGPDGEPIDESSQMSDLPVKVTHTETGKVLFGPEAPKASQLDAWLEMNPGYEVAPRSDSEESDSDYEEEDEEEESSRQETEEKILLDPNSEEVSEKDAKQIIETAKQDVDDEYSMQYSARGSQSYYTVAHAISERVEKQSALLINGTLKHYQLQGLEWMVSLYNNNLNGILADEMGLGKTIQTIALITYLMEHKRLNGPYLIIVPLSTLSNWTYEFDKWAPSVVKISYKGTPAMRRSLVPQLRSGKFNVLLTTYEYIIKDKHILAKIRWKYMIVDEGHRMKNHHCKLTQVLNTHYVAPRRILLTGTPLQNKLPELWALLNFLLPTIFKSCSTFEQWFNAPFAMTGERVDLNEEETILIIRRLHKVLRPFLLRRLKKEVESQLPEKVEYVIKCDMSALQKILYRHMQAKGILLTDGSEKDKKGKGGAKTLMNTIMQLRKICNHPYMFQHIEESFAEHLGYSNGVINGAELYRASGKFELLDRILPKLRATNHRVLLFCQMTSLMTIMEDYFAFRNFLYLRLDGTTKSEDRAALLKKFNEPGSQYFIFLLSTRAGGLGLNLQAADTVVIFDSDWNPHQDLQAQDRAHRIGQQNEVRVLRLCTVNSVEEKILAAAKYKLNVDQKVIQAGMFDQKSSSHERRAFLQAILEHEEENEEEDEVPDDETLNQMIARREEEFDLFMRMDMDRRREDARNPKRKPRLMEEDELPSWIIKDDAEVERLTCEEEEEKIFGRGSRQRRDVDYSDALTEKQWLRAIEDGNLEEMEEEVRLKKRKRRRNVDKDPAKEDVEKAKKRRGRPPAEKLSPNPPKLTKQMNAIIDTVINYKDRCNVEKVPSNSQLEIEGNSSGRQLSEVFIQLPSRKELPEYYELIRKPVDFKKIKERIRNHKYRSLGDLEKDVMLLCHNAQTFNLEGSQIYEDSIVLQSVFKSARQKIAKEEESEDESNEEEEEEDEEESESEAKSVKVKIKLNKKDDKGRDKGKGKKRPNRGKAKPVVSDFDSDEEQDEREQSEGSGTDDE

As to `CC(C)C(C(=O)N1C[C@H](O)C[C@H]1C(=O)NC1CCC1)c1cc(N2CC3(CC(c4cc5nnc(-c6ccccc6O)cc5n4C4CCC4)C3)C2)no1` (stereo partly drawn) [Compound 118, (2S,4R)-N-cyclobutyl-1-(2-(3-(6-(5-cyclobutyl-3-(2-hydroxyphenyl)-5H-pyrrolo[3,2-c]pyridazin-6-yl)-2-azaspiro[3.3]heptan-2-yl)isoxazol-5-yl)-3-methylbutanoyl)-4-hydroxypyrrolidine-2-carboxamide], on HiBit-BRM fusion protein, the “BRM HiBit Degradation Maximum (%)” value is recorded as “A (“A” indicates maximum degradation ≥75%)” and the DC50 was greater than 0.01 µM. Moreover, the Dmax in test [1] is less than 50%.

Consider `CC(C)C(C(=O)N1C[C@H](O)C[C@H]1C(=O)NC1CCCC1)c1cc(N2CC3(CC(c4cc5nnc(-c6ccccc6O)cc5n4C4CCC4)C3)C2)no1` (stereo partly drawn) [Compound 119, (2S,4R)-1-(2-(3-(6-(5-cyclobutyl-3-(2-hydroxyphenyl)-5H-pyrrolo[3,2-c]pyridazin-6-yl)-2-azaspiro[3.3]heptan-2-yl)isoxazol-5-yl)-3-methylbutanoyl)-N-cyclopentyl-4-hydroxypyrrolidine-2-carboxamide], for which, at HiBit-BRM fusion protein, the “BRM HiBit Degradation Maximum (%)” value was “A (“A” indicates maximum degradation ≥75%)” and the DC50 was greater than 0.01 µM. Further, in test [1], the Dmax is less than 50%.

For `CC(C)C(C(=O)N1C[C@H](O)C[C@H]1C(=O)NC12CC(C1)C2)c1cc(N2CC3(CC(c4cc5nnc(-c6ccccc6O)cc5n4C4CCC4)C3)C2)no1` (stereo partly drawn) [Compound 120, (2S,4R)-N-(bicyclo[1.1.1]pentan-1-yl)-1-(2-(3-(6-(5-cyclobutyl-3-(2-hydroxyphenyl)-5H-pyrrolo[3,2-c]pyridazin-6-yl)-2-azaspiro[3.3]heptan-2-yl)isoxazol-5-yl)-3-methylbutanoyl)-4-hydroxypyrrolidine-2-carboxamide], at HiBit-BRM fusion protein, the “BRM HiBit Degradation Maximum (%)” value was “A (“A” indicates maximum degradation ≥75%)” and the DC50 is greater than 0.01 µM. In addition, the Dmax in test [1] was less than 50%.

On to `C#Cc1ccc([C@H](C)NC(=O)[C@@H]2C[C@@H](O)CN2C(=O)C(c2cc(N3CC4(CC(c5cc6nnc(-c7ccccc7O)cc6n5C5CCC5)C4)C3)no2)C(C)C)c(Cl)c1` (stereo partly drawn) [Compound 121, (2S,4R)-N-((S)-1-(2-chloro-4-ethynylphenyl)ethyl)-1-(2-(3-(6-(5-cyclobutyl-3-(2-hydroxyphenyl)-5H-pyrrolo[3,2-c]pyridazin-6-yl)-2-azaspiro[3.3]heptan-2-yl)isoxazol-5-yl)-3-methylbutanoyl)-4-hydroxypyrrolidine-2-carboxamide], for which, on HiBit-BRM fusion protein, the “BRM HiBit Degradation Maximum (%)” value is “A (“A” indicates maximum degradation ≥75%)” and the DC50 is greater than 0.01 µM. The Dmax in test [1] is less than 50%.
